The target of assay [1] is T1, Mdm4 (Homo sapiens, UniProt O15151).
T1 sequence (O15151 1-490): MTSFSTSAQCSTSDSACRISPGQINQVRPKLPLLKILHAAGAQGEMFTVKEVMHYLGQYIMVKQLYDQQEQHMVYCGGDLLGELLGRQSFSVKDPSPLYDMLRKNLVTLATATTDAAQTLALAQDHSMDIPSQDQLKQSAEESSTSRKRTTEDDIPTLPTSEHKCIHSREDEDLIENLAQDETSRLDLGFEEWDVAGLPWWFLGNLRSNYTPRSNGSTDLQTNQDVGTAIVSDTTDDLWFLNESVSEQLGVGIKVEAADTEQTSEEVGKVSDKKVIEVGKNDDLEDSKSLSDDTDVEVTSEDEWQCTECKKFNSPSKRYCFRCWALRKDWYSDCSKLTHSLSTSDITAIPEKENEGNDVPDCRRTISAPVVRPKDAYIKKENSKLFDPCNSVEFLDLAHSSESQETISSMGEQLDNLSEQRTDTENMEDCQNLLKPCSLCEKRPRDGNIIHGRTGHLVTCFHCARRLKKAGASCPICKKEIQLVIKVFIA
Description: Lysate CETSA, thermal stabilisation of Mdm4 in AML2 cell lysates. The assay is classed as binding. Also on record: endogenous in cells; host or cells: OCI/AML-2 (AML2) cells, pre-treated with MG132.
Description: (§1) Cells pre-treated with 10 μM MG132 for one hour were lysed in kinase buffer (25 mM Tris pH 7.4, 10 mM MgCl2, 2 mM DTT, 1x protease (Roche) and phosphatase inhibitor cocktails (Thermo Scientific)) by dounce homogenisation with a 2 ml Wheaton mortar and pestle. […] Following a 15 min incubation at room temperature with the drugs, the cell lysates were individually heated to the indicated temperatures for 2 min, cool at room temperature for 2 min, and placed on ice. Insoluble proteins were separated by centrifugation, and the soluble proteins were used for SDS PAGE and Western blotting for the indicated proteins. Three independent replicates were performed.
(§2) The relative signal intensities were plotted against temperature using Graphpad (Prism) and a variable slope sigmoidal curve was fitted by least squares for each data set using the following equation (1): [drawing 1]
(§3) Initial values for top and bottom plateaus were set at 1.0 and 0 respectively for curve fitting, while initial values for Tm50 and Hill Slope were automatically chosen. As the asymmetry of errors is small, errors were assumed to be symmetrical for statistical analyses.

The target of assay [2] is T1, Mdm4. Also on record: method as in 3 sources, ref 10 = [10]; PMID 23214419; doi:10.1021/cb3005148; Brown C. J. et al. Stapled Peptides with Improved Potency and Specificity That Activate p53 . ACS Chem. Biol . 8 , 506 – 512 ( 2013 ). 23214419 10.1021/cb3005148 ||| ref 11 = [11]; PMID 23946421; doi:10.1073/pnas; Chang Y. S. et al. Stapled α−helical peptide drug development: A potent dual inhibitor of MDM2 and MDMX for p53-dependent cancer therapy . Proc. Natl. Acad. Sci . 201303002 (2013). 10.1073/pnas .13030 ||| ref 6 = [6]; PMID 14704432; doi:10.1126/science.1092472; Vassilev L. T. et al. In vivo activation of the p53 pathway by small-molecule antagonists of MDM2 . Science 303 , 844 – 848 ( 2004 ). 14704432 10.1126/science.1092472. As to conditions: competition assay, cited from earlier work.

The target in assay [3] is T2, Mdm2 (Homo sapiens, UniProt Q00987). Details: method as in 3 sources, ref 10 = [10]; PMID 23214419; doi:10.1021/cb3005148; Brown C. J. et al. Stapled Peptides with Improved Potency and Specificity That Activate p53 . ACS Chem. Biol . 8 , 506 – 512 ( 2013 ). 23214419 10.1021/cb3005148 ||| ref 11 = [11]; PMID 23946421; doi:10.1073/pnas; Chang Y. S. et al. Stapled α−helical peptide drug development: A potent dual inhibitor of MDM2 and MDMX for p53-dependent cancer therapy . Proc. Natl. Acad. Sci . 201303002 (2013). 10.1073/pnas .13030 ||| ref 6 = [6]; PMID 14704432; doi:10.1126/science.1092472; Vassilev L. T. et al. In vivo activation of the p53 pathway by small-molecule antagonists of MDM2 . Science 303 , 844 – 848 ( 2004 ). 14704432 10.1126/science.1092472. As to conditions: competition assay, cited from earlier work.

In assay [4] the test system is p53 responsive β-galactosidase reporter in T22 cells. The assay is described as follows: T22 p53 β-galactosidase based reporter assay. As to conditions: 18 h treatment, text points to Fig. 2a in Brown et al., 2013. The assay is classed as cell-based. A general note: In a reporter assay the amount or activity of a reporter protein is the signal.
Description: T22 cells, which were stably transfected with a p53 responsive β-galactosidase reporter, were seeded into 96-well plate at a cell density of 8000 cells per well[22]. Cells were maintained in Dulbecco’s Minimal Eagle Medium (DMEM) with 10% FBS and penicillin/streptomycin and incubated for 24 hours before treatment with the stapled peptides for 18 hours. β-galactosidase activity was assayed using the FluoReporter LacZ/Galactosidase Quantitation kit (Invitrogen) as per manufacturer’s instructions. Measurements were made using an Envision plate reader (Perkin Elmer). Experiments were carried out independently thrice.
Assay [5] addresses Mdm4 (human (endogenous in OCI/AML-2)) (UniProt O15151). The assay is described as follows: cellular thermal shift assay (CETSA); lysate CETSA: peptides at 10 uM added to 5 mg/ml AML2 cell lysate (kinase buffer: 25 mM Tris pH 7.4, 10 mM MgCl2, 2 mM DTT), 15 min at room temperature, heated 2 min, soluble protein by Western blot; dTm50 against the control. In general terms: Immunoblotting shows a protein as a band on a membrane.

The target of assay [6] is Mdm2 (human (endogenous in OCI/AML-2)) (UniProt Q00987). Described as above.
Assay [7] concerns the target T2, Mdm2. Description: Lysate CETSA, thermal stabilisation of Mdm2 in AML2 cell lysates. Details: endogenous in cells; host or cells: OCI/AML-2 (AML2) cells, pre-treated with MG132. The format is binding. As to conditions: Fig. 1a, 10 μM in 5 mg/ml AML2 cell lysates, three independent replicates.
Description: as §1, §2, §3
Assay [8] deals with T2, Mdm2. The assay is described as follows: Whole cell CETSA, Mdm2.
Description: (§4) Cells were pre-treated with 10 μM MG132 for one hour before a four hour treatment with the indicated drugs. They were then aliquoted for heating to different temperatures for 2 min, cooled at room temperature for 2 min and placed on ice. Kinase buffer was added to the cells, followed by lysis with three freeze/thaw cycles in liquid nitrogen. Insoluble proteins were separated by centrifugation, and the soluble proteins were used for SDS PAGE and Western blotting. Three independent experiments were performed.
as §2, §3
Assay [9] deals with T1, Mdm4. The assay is described as follows: Whole cell CETSA, Mdm4. As to conditions: whole cells 25 μM.
Description: as §4, §2, §3
In assay [10] the target is Mdm4 (human (endogenous in OCI/AML-2)) (UniProt O15151). Description: cellular thermal shift assay (CETSA); whole cell CETSA: OCI/AML-2 cells pre-treated with 10 uM MG132 for 1 h, then 25 uM Staplin-2 for 4 h, intact cells heated 2 min, lysed by freeze/thaw, soluble protein by Western blot; compared with the lysate CETSA.
In assay [11] the target is Mdm2 (human (endogenous in OCI/AML-2)) (UniProt Q00987). Described as above.
[12] abbreviates: no reference number printed in the cell, footnote: IC50s are obtained from the references indicated.

Like-named read-outs stand apart in the source and are kept apart here. Bridge positions count the residues as written; N and C are the ends. Square brackets hold non-standard residues; d marks the D form. Peptide text beside a SMILES is read from it. R8 = C=CCCCCCC[C@@](C)(N)C(=O)O; S5 = C=CCCC[C@](C)(N)C(=O)O

Sequence of Mdm2 (human (endogenous in OCI/AML-2)) (Q00987 whole entry): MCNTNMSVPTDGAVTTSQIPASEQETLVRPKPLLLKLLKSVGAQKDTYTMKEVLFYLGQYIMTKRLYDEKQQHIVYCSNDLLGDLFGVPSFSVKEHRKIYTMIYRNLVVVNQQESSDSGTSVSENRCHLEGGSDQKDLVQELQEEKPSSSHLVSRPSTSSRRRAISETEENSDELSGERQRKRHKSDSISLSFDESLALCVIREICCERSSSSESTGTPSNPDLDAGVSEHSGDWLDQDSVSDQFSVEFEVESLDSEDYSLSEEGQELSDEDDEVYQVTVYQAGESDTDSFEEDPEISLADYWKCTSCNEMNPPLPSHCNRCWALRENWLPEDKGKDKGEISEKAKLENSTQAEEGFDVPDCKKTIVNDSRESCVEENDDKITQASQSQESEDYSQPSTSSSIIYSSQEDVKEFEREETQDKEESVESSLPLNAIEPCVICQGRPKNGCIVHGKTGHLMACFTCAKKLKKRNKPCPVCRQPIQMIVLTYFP
T2 sequence (Q00987 whole entry): as above

`CC(C)C[C@H](NC(=O)c1ccc2c(c1)C(=O)OC21c2ccc(O)cc2Oc2cc(O)ccc21)C(=O)N[C@H](C(=O)N[C@@H](Cc1ccccc1)C(=O)N[C@]1(C)CCCCCCC=CCCC[C@@](C)(C(=O)N[C@@H](CO)C(=O)N[C@@H](C)C(=O)N[C@@H](C)C(N)=O)NC(=O)[C@H](CC2CCC2)NC(=O)[C@H](CCC(N)=O)NC(=O)[C@H](C)NC(=O)[C@H](Cc2c[nH]c3ccccc23)NC(=O)[C@H](Cc2ccc(O)cc2)NC(=O)[C@H](CCC(=O)O)NC1=O)[C@@H](C)O` [ATSP-7041 ^FAM]: at Mdm4 [1] (Fig. 2c, labelled and unlabelled stapled peptides, AML2 cell extracts, 15 min), the “Mdm4 ΔTm50 (±95% CI)” value is 1.11 (1.65) °C.
In general, IC50 refers to the concentration that gives 50% inhibition. Turning to `CC(=O)N[C@H](C(=O)N[C@@H](CO)C(=O)N[C@@H](C)C(=O)N[C@]1(C)CCCCCCC=CCCC[C@@](C)(C(N)=O)NC(=O)[C@H](C)NC(=O)[C@H](CC(C)C)NC(=O)[C@H](C)NC(=O)[C@H](C)NC(=O)[C@H](Cc2ccc(O)cc2)NC(=O)[C@H](CCC(=O)O)NC1=O)[C@@H](C)O` [Staplin-Control, reference compound] (Ac-TSA[R8]EYAALA[S5]-NH2; staple 4-11), the half-inhibitory concentration (IC50) on Mdm4 [2] (setting [12]) and at Mdm2 [3] (setting [12]) was over 10000 nM in each case.
“Ac-^1LTFXrEYWAQ(Cba)XSSAA^14-NH2 (sidechain bridge or staple) [ATSP-7041, reference compound]”: the half-inhibitory concentration (IC50) in the assay with Mdm4 [2] was 2310 nM. Besides, the “p53 activation measured by β-galactosidase activity with increasing concentrations” value in assay [4] was “correspondingly increasing p53 activity and plateaued off at maxima”.
As to FAM-labelled ATSP-7041 (peptide), the decrease in thermal shift against unlabelled ATSP-7041 in assay [5] came out at 0.4 °C.
Turning to Staplin (peptide), the ΔTm50 in assay [5] stood at 5.48 °C; in assay [6], 6.76 °C.
Turning to `CC(=O)N[C@H](C(=O)N[C@@H](CO)C(=O)N[C@@H](Cc1ccccc1)C(=O)N[C@]1(C)CCCCCCC=CCCC[C@@](C)(C(N)=O)NC(=O)[C@H](CC(C)C)NC(=O)[C@H](CC(C)C)NC(=O)[C@H](C)NC(=O)[C@H](Cc2c[nH]c3ccccc23)NC(=O)[C@H](Cc2ccc(O)cc2)NC(=O)[C@H](CCC(=O)O)NC1=O)[C@@H](C)O` [Staplin], the ΔTm at 10 µM on Mdm2 [7] (human, 0.25 h, versus control, read-out: Mdm2: ΔTm50 (±95% CI)) is 6.76 °C; at Mdm4 [1] (human, 0.25 h, Fig. 1b, 10 μM in 5 mg/ml AML2 cell lysates, versus control, three independent replicates, read-out: Mdm4: ΔTm50 (±95% CI)), 5.48 °C. Also, the half-maximal inhibitory concentration (IC50) on Mdm4 [2] was 660 ± 60 nM.
With `COc1ccc(C2=N[C@@H](c3ccc(Cl)cc3)[C@@H](c3ccc(Cl)cc3)N2C(=O)N2CCNC(=O)C2)c(OC(C)C)c1` [Nutlin-3, nutlin-3, reference compound], the “Mdm2: Tm50 (mean +95% CI −95% CI)” value at Mdm2 [7] (15 min room temperature, heated 2 min, Western blot) is 55.9 °C. Besides, the “Mdm2 ΔΔTm50 (±95% CI), lysate versus whole cell” value on Mdm2 [8] (Fig. 3a, 10 μM) amounted to 0.24 ± 1.42 °C.
Regarding ATSP-7041 (peptide), in assay [6], the thermal shift (ΔTm50) came to 1.52 °C.
In the case of “Ac-^1TSFXrEYW(6Cl)WALLXs^11-NH2 (sidechain bridge or staple) [Staplin-2]”, the “Mdm2: ΔTm50 (±95% CI)” value on Mdm2 [7] (versus control) turned out to be 6.58 °C. Moreover, the IC50 with Mdm4 [2] is 3490 ± 630 nM; with Mdm2 [3], 320 ± 20 nM. For the same molecule, the “Mdm4: ΔTm50 (±95% CI)” value at Mdm4 [1] (Fig. 1b, 10 μM in 5 mg/ml AML2 cell lysates, versus control, three independent replicates) stood at 5.44 °C. Further, at Mdm2 [8] (Fig. 3b, whole cells 25 μM), the “ΔΔTm50 (±95% CI) Mdm2, lysate versus whole cell” value turned out to be 4.01 °C. Besides, the “mean thermal shift from the whole cell CETSA as % of the mean thermal shift for the cell lysate CETSA, Mdm2” value at Mdm2 [8] (whole cells 25 μM) was 40%. In addition, on Mdm4 [9] (Fig. 3b), the “ΔΔTm50 (±95% CI) Mdm4, lysate versus whole cell” value stood at 3.58 °C. Moreover, the “mean thermal shift from the whole cell CETSA as % of the mean thermal shift for the cell lysate CETSA, Mdm4” value on Mdm4 [9] is listed as 33%. The “p53 activation measured by β-galactosidase activity with increasing concentrations” value in assay [4] was “correspondingly increasing p53 activity and plateaued off at maxima”.
In the case of Staplin-2 (peptide), the mean thermal shift in whole cell CETSA as percent of that in cell lysate CETSA in assay [10] was determined as 33%; in assay [11], 40%. Also, the ΔΔTm50 (whole cell CETSA against cell lysate CETSA) came to 3.58 °C in assay [10] and 4.01 °C in assay [11]. The ΔTm50 in assay [5] came out at 5.44 °C; in assay [6], 6.58 °C.
Regarding FAM-labelled Staplin-2 (peptide), the thermal shift less than that of unlabelled Staplin-2 in assay [5] was determined as 2.99 °C; in [6] it was 2.71 °C.

The record behind these values is article PMC4498326, “Assessing the Efficacy of Mdm2/Mdm4-Inhibiting Stapled Peptides Using Cellular Thermal Shift Assays” (Scientific Reports, 2015).
